Experimental findings from patent US20030186943A1, “Substituted gamma-phenyl-delta-lactams and uses related thereto” (Inflazyme Pharmaceuticals Ltd., priority 1998, published 2003) are described below.

Assay [1] deals with Resiniferitoxin-induced mouse ear edema. Kind of assay: Resiniferitoxin-induced mouse ear edema. The conditions noted are these: CD1 mice; for inhibition in vivo at 100 mg/kg: ip, intraperitoneal administration. The assay is classed as in vivo. From the text: One of the primary characteristics of inflammation is an increase in vascular dilation and permeability leading to the extravasation of, and collection of fluids in, the interstitium, resulting in redness and swelling. Rheumatoid arthritis in particular is characterized by pronounced edema of affected joints resulting in significant pain and stiffness. The mouse ear inflammation model is a standard in vivo assay for inflammation that is based on an increase in ear weight which is attributable to edema induced by inflammatory mediators. RTX (resiniferitoxin; Sigma; Catalogue No. R 8756)) is a diterpene isolated from the plant Euphorbia poisonii and is an ultrapotent analog of capsaicin. RTX acts by selectively stimulating nociceptive and thermal-sensitive nerve ending in tissue, eliciting neurogenic edema. Compounds of the present invention, whether administered topically, intraperitoneally or orally, inhibited development of edema induced by topical application of RTX.
Mice (CD1, Charles River Laboratories) were separated into groups (n—5−8) and tagged. Control mice had RTX (0.1 μg/ear) applied topically to the inner and outer sides of the left ear and vehicle applied to the right ear as a control. For topical administration, experimental/treatment mice received RTX+test compound solution (50 μg/ear) on the left ear and acetone on the right ear. For intraperitoneal (i.p.) administration, 100 mg/kg test compound dissolved in 100 μL PEG 200:saline (1:1) was injected followed by a 30 minute waiting period then the standard 30 minute RTX edema induction. For oral (p.o.) administration, 10 mg/kg test compound in 100 μL PEG-200 was given to animals, then edema induced using 0.1 μg/ear RTX after a 1.5 hour waiting period. After edema induction, mice were sacrificed, and a standard disc of ear tissue was removed. Each disk of tissue was immediately weighed to the nearest 1/10th of a mg. Data were analyzed by taking the difference of each left ear from the right ear, calculating the mean+/−SEM. Statistical significance was tested by 2-sample t-test on the left/right ear weight differences of the control group vs. the experimental group.

Assay [2] has as its system primary human neutrophils. Kind of assay: Generation of reactive oxygen species by fMLP-activated neutrophils (luminol-enhanced chemiluminescence). The assay is classed as cell-based. As to conditions: Neutrophil. The text has this:
Neutrophil activation can be measured by quantitation of ROS generated in vitro. Measurement of ROS allows specific quantitation of a pro-inflammatory species and is also a general measure of neutrophil activation. The most sensitive method for measuring the production of ROS by neutrophils is luminol-enhanced chemiluminescence. […] The assay system used to evaluate the ability of compounds to inhibit ROS generation in neutrophils is indicative of anti-inflammatory activity that may be efficacious in disease states including but not limited to rheumatoid arthritis and inflammatory bowel disease.
Freshly isolated primary human neutrophils (5×10^6 cells/mL) were incubated with the required concentrations of compound or vehicle for 30 minutes at 37° C. in HBSS buffer (pH 7.4) containing Ca^2+. 100 nM wortmannin was used as a positive control. Aliquots of each sample were transferred to a microtitre plate to which luminol (1 μM); obtained from Sigma; Catalogue No. A8511 is added. Activation of the neutrophils was immediately initiated by addition of (1 μM) fMLP; obtained from Sigma, Catalogue No. F3506. Light output from each well was recorded for 30 minutes in a microplate luminometer. Total light output (integral of the time-course) was determined for each well. Inhibitory activities of test drugs against neutrophil ROS generation is expressed as percentage activity relative to a no drug control (100% activation or generation of ROS) containing 0.25% DMSO. Concentration of test compound required to inhibit the generation of ROS to 50% of control values (IC50's) were determined from concentration-response curves by non-linear regression analysis.

Assay [3] has as its system primary human neutrophils. The assay is described as follows: fMLP-induced human neutrophil chemotaxis. The assay is classed as cell-based. As to conditions: fMLP-induced chemotaxis, X marks this range. The procedure: Chemotaxis buffer containing the chemoattractant fMLP (10 μM) was added to each well of a chemotaxis plate and a filter was inserted ensuring contact between the filter and the chemotaxis buffer in the well. A submaximal concentration of chemoattractant was used which had been determined in previous experiments. […] Freshly isolated neutrophils (1×10^6) were incubated with vehicle (0.125% DMSO)±test compound for 1 hr at 37° C. Treatment and control cell suspensions were then gently resuspended and 20 μL of cells was added to the top side of the filter on each well. The plate was incubated for 1.5 hours at 37° C. under 5% CO2. Cells were then removed from the top side of the filter by aspiration and the entire plate was centrifuged. The filter was removed and known concentrations of cells were added to unused wells to prepare a standard curve. XTT (Sigma; Catalogue No. X 4251)/PMS (Sigma; Catalogue No. P 7626) solution prepared in buffer was added to each well and the cells were further incubated 1-2 hours and measured for absorbance at 450 nm. Absorbance values were converted to cell numbers using the standard curve. IC50 values are averages from at least three separate experiments with triplicate determinations.

In assay [4] the target is T1, cAMP phosphodiesterase 3 from human platelets (Homo sapiens, UniProt Q14432).
T1 construct: from tissue; host or cells: human platelets, cytoplasmic extract
Kind of assay: Inhibition of cAMP phosphodiesterase 3 from human platelets. The assay is classed as biochemical. As to conditions: PDE3, platelet cell extract, X marks this range. From the text: Compound 12 was screened for activity against 5 of the major classes of mammalian cyclic nucleotide phosphodiesterase (termed PDE 1 through 5). PDE's 1 through 4 utilize cAMP as substrate while PDE 5 uses cGMP. The broad specificity PDE inhibitor 3-isobutyl-1-methylxanthine (IBMX; Sigma; Catalogue No. 17018)) was used as a positive control in all assays. PDE's for the various assays were partially purified from the following cells/tissues; PDE 1 (bovine heart), PDE 2 (human platelets), PDE 3 (human platelets), PDE 4 (human promonocytic U937 cells) and PDE 5 (human platelets).
Platelet cell extracts were prepared as described above for the U937 cells. The PDE3 assay was performed using platelet cell extract as described above for the PDE 4 assay. Platelets contain PDE 2, 3 and 5. However PDE2 and 5 preferentially utilize cGMP, so in an assay with cAMP as a substrate they are not detected.

Assay [5] concerns High Affinity Rolipram Binding Site of PDE4 in Mouse Brain. The assay is described as follows: Displacement of [3H]-rolipram from its high affinity binding site (HARBS). The conditions noted are these: ratio of IC50 for PDE4 catalytic activity to concentration displacing 50% of rolipram from HARBS. The method, then:
Suspension was centrifuged twice at 30,000×G at 4° C. and the supernatant discarded. The pellet was resuspended in buffer, and adjusted to a protein concentration of 0.5 mg/mL. Drugs to be tested were dissolved in DMSO and pipetted in triplicate into a 96 well microplate at concentrations ranging from 1 to 30,000 nM. […] The plate was incubated at 4° C. for 1 hour. Contents of the plate were aspirated through a Whatman GF/C filterplate, and rinsed with 4×200 μL ice-cold buffer. […] Triplicate determinations were performed at each concentration.
In general terms: Loss of bound radioactivity is the signal in a displacement assay; it reports binding, not function.

In assay [6] the test system is cAMP response element luciferase activity in human U937 monocytic cells. The assay is described as follows: Potentiation of forskolin-induced CRE-luciferase activity in U937 cells. The assay is classed as cell-based. The conditions noted are these: U-937, U937 cells co-incubated with 10 μM forskolin, 4 hours, X marks this range. The procedure: Compounds of the present invention were thereby shown to provide potentiated luciferase expression in U937 cells treated with the adenylyl cyclase activator forskolin.
Human pro-monocytic U937 cells were maintained in RPMI medium containing 10% FCS and 2 mM […]. U937 cells were transiently transfected as described in Biotechniques Vol. 17(6):1058, 1994. Briefly, cells were grown in medium containing serum to a density of 5×10^6 cells/mL and then resuspended in media containing serum at a density of approximately 1×10^7 cells/mL. 400 μL of cells were transferred into the electroporation cuvette containing 10 μg of the reporter vector (PCRE-luc) in a volume of 40 μL H2O. Reporter vector DNA was prepared from DH5α E. coli using the DNA […] free kit (Qiagen) as per manufacturers instructions. U937 cells were clectroporated at room temperature using a BIORAD electroporator. Capacitance was set to 1050 μF and voltage was 280V. The time constant was noted after each electroporation. Cells were then diluted in 4 mL of media and serum and 200 μL of cells were plated per well. Cells were allowed to recover for 16-18 hours. Cells were then treated with a test compound or vehicle in the presence or absence of 10 μM forskolin for 4 hours at 37° C.
The luciferase assay was performed as per manufacturers instructions (Tropix). Briefly, cells were centrifuged for 4 minutes at 1200 rpm and media supernatant was removed. Cell pellets were lysed in 15 μL Lysis buffer (Tropix). Luciferase assay was performed using 10 μL of cell lysate with 10 μL of buffer A and 25 μL buffer B. Luciferase activity was obtained using a luminometer with a 5-second delay followed by a read time of 10 seconds.

Where [7] appears, read: read-out: IC50 RANGE (μM) <1, ROS production, X marks this range.
Where [8] appears, read: Mus musculus, topical administration, 50 μg/ear, RTX 0.1 μg/ear.
Where [9] appears, read: read-out: IC50 range (μM) 10-100.

Like-named read-outs stand apart in the source and are kept apart here.

T1 sequence (Q14432 whole entry): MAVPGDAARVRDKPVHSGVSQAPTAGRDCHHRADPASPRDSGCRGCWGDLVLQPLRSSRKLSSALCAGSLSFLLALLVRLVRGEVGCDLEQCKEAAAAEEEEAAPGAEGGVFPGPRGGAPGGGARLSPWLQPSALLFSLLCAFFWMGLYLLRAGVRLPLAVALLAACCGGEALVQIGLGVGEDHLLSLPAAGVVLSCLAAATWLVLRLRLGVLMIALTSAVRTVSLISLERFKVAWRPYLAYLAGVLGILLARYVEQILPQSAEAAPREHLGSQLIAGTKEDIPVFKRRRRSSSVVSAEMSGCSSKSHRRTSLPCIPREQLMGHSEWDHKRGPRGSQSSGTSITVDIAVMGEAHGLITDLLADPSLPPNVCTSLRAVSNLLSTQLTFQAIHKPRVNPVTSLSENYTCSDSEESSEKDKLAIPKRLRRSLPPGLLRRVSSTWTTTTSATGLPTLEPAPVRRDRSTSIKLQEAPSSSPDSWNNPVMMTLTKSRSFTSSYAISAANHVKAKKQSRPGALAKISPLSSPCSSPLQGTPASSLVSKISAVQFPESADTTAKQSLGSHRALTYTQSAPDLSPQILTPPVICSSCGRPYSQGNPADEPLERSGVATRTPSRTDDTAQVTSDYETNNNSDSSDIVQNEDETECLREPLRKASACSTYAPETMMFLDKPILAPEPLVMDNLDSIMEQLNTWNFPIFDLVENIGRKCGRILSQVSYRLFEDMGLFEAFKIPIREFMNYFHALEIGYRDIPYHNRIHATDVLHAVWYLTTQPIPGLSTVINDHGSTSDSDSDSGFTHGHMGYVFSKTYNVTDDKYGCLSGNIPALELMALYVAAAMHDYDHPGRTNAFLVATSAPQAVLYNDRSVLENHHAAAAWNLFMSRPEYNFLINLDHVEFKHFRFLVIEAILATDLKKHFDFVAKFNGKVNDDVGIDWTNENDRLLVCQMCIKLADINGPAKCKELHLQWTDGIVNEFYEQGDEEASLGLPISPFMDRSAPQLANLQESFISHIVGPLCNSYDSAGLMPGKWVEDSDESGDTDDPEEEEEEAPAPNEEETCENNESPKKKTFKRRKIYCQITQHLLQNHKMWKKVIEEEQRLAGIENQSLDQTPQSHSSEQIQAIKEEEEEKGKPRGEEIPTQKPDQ

In the case of `COc1ccc([C@@H](CO)CCC(=O)OC(C)(C)C)cc1OCc1ccccc1` [Compound 91], the “% Inhibition of Edema” value in assay [1] (topical administration, 50 μg/ear, RTX 0.1 μg/ear) is on record as 27%.
As usually defined, the IC50 is the concentration needed to halve the response being measured. Broadly, the inhibition in vivo is the change of the read-out against control, counted positive when it falls. Low readings indicate a weak effect, high ones a strong effect. What is called EC50 is the concentration giving half of the maximal effect. Take `COc1cc(C[C@H]2C[C@@H](c3ccc(OC)c(OC)c3)COC2=O)ccc1O` [Compound 29]: the IC50 was under 1 µM in assay [2] (setting [7]), 10 to 100 µM in assay [3] (read-out: IC50 RANGE (μM) 10-100) and 10 to 100 µM in assay [4] (setting [9]). Further, the inhibition in vivo at 50 µg/ear in assay [1] (setting [8]) is 76%. In addition, the “PDE4:HARBS” value in assay [5] is under 1. The EC50 in assay [6] (read-out: EC50 range (μM) 1-25) was 1 to 25 µM.
As for `COc1cc(CC2CC(c3ccc(OC)c(OC)c3)COC2=O)ccc1O` (centres unmarked) [Compound 129], the IC50 is under 1 µM in assay [2] (setting [7]), 1 to 10 µM in assay [3] (read-out: IC50 RANGE (μM) 1-10) and 10 to 100 µM in assay [4] (setting [9]). The “PDE4:HARBS” value in assay [5] is under 1. In assay [6] (read-out: EC50 range (μM) 1-25), the EC50 fell in the range of 1 to 25 µM.
In turn, `COc1ccc([C@@H]2CCC(=O)OC2)cc1OCc1ccccc1` [Compound 92] had an inhibition in vivo at 50 µg/ear in assay [1] (setting [8]) of 93%.
On to `COc1cc(CC2C[C@@H](c3ccc(OC)c(OC4CCCC4)c3)COC2=O)ccc1OCc1ccccc1` (some centres unmarked) [Compound 42], for which the IC50 in assay [2] (ROS production, X marks this range, read-out: IC50 RANGE (μM) 10-100) was 10 to 100 µM; in assay [4], over 100 µM. Further, the inhibition in vivo at 100 mg/kg in assay [1] (Mus musculus) is 38%. Besides, in assay [1] (Mus musculus, oral administration, 10 mg/kg), testing at 10 mg/kg gave an inhibition in vivo of 41%. Besides, the “PDE4:HARBS” value in assay [5] was under 1. In addition, the half-maximal effective concentration (EC50) in assay [6] (read-out: EC50 range (μM) 1-25) lay in the range of 1 to 25 µM.
On to `COc1cc(C[C@@H]2C[C@H](c3ccc(OC)c(OC)c3)COC2=O)ccc1O` [Compound 130], for which the IC50 in assay [2] (setting [7]) was under 1 µM; in assay [3] (read-out: IC50 RANGE (μM) 1-10), 1 to 10 µM; in assay [4] (setting [9]), 10 to 100 µM. In assay [5], the “PDE4:HARBS” value is under 1. The EC50 in assay [6] (read-out: EC50 range (μM) 1-25) lay in the range of 1 to 25 µM.
For the compound `CCCCOc1cc([C@@H]2CCC(=O)OC2)ccc1OC` [Compound 99], the IC50 in assay [2] (setting [7]) is under 1 µM; in assay [4], over 100 µM. Also, the inhibition in vivo at 100 mg/kg in assay [1] (Mus musculus) turned out to be 88%. Further, the inhibition in vivo at 50 µg/ear in assay [1] (setting [8]) stood at 98%. Also, the “PDE4:HARBS” value in assay [5] was over 1. For the same compound, in assay [6] (read-out: EC50 range (μM) 0.1-1), the EC50 lay in the range of 0.1 to 1 µM.
As for `BrCc1ccc(OCc2ccccc2)c(OCc2ccccc2)c1` [Compound 78, 3,4-dibenzyloxy benzyl bromide], the inhibition in vivo at 50 µg/ear in assay [1] (setting [8]) was found to be 93%.
`COc1ccc([C@@H]2CCC(=O)OC2)cc1OC(C)=O` [Compound 103] displayed an inhibition in vivo at 50 µg/ear in assay [1] (setting [8]) of 94%.
With `COc1ccc([C@@H]2CCC(=O)OC2)cc1OC` [Compound 21], the IC50 was 1 to 10 µM in assay [2] (ROS production, X marks this range, read-out: IC50 RANGE (μM) 1-10); 1 to 10 µM in assay [3] (read-out: IC50 RANGE (μM) 1-10); over 100 µM in assay [4]. The inhibition in vivo at 50 µg/ear in assay [1] (setting [8]) came to 32%. Further, the “PDE4:HARBS” value in assay [5] was under 1. Further, the EC50 in assay [6] (read-out: EC50 range (μM) 1-25) lay in the range of 1 to 25 µM.
